In assay [1] the target is T1, muFAP (Mus musculus, UniProt P97321).
T1 sequence (P97321 1-761): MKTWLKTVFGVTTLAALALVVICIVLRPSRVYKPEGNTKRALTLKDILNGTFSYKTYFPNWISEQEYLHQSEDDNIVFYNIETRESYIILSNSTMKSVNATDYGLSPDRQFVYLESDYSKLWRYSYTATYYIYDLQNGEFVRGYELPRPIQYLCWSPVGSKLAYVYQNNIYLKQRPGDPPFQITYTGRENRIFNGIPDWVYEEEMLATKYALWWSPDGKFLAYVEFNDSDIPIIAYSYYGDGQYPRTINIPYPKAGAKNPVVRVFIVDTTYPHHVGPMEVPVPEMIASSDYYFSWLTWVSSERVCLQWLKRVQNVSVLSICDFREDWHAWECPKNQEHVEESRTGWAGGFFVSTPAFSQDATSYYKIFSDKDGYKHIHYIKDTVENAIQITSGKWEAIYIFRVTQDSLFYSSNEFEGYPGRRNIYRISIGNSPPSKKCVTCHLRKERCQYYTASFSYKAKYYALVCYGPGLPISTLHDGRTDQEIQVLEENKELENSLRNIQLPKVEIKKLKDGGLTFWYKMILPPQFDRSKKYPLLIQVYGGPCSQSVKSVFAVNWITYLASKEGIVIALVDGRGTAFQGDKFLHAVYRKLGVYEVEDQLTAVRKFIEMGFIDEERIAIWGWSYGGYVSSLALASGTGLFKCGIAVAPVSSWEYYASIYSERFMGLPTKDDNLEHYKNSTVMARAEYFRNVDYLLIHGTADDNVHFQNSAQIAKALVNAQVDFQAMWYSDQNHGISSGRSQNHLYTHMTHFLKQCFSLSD
Kind of assay: Recombinant enzymatic inhibition assay, muFAP (Z-Gly-Pro-AMC). The assay is classed as biochemical, murine. The conditions noted are these: n = 3, picture: nM ± 95% CI. On the procedure: (§1) All enzymatic assays were performed in black 384-well plates, and enzymatic activity was measured on a microplate reader, monitoring the fluorescence at λEX 350 nm/λEM 485 nm. […] Val-boroPro (10^− 4 M) and assay buffer served as a positive and negative control, respectively. To measure inhibition of PREP, 50 µL of the reaction mixture containing 1 µM Z-Gly-Pro-AMC and 10 ng PREP (R&D Systems; Minneapolis, MN, USA) were used. The enzymatic assay of DPP4 contained substrate (100 µM), DPP4 (Abcam; Cambridge, UK) (10 nM), assay buffer, and increasing concentrations of the inhibitors (10^− 10 M to 10^− 4 M). Sitagliptin (10^− 4 M) and assay buffer were used as a positive and negative control, respectively. H-Gly-Pro-AMC (100 µM) in assay buffer was used as a baseline control. The plates were analyzed in a Hidex Sense Microplate reader (Hidex; Turku, Finland) at 37 °C under dark conditions for 1 h (huFAP), 2 h (muFAP), or 30 min (PREP, DPP4). For all assays, the components were kept on ice before plating.
(§2) All statistical analyses were performed with GraphPad Prism version 9.0 (San Diego, California USA). All IC50 values were determined using a non-linear regression Log(inhibitor) vs. response analysis with variable slope (four parameters). For the in vivo results outliers were identified by a ROUT test (Q = 1%) and excluded. Next, a two-tailed student’s t-test was performed (*p < 0.05, **p < 0.01, ***p < 0.001). All experiments were performed in triplicate and repeated at least three times.

Assay [2] deals with T2, prolyl oligopeptidase (PREP) (Homo sapiens, UniProt P48147).
T2 construct: purchased R&D Systems
T2 sequence (P48147 1-710): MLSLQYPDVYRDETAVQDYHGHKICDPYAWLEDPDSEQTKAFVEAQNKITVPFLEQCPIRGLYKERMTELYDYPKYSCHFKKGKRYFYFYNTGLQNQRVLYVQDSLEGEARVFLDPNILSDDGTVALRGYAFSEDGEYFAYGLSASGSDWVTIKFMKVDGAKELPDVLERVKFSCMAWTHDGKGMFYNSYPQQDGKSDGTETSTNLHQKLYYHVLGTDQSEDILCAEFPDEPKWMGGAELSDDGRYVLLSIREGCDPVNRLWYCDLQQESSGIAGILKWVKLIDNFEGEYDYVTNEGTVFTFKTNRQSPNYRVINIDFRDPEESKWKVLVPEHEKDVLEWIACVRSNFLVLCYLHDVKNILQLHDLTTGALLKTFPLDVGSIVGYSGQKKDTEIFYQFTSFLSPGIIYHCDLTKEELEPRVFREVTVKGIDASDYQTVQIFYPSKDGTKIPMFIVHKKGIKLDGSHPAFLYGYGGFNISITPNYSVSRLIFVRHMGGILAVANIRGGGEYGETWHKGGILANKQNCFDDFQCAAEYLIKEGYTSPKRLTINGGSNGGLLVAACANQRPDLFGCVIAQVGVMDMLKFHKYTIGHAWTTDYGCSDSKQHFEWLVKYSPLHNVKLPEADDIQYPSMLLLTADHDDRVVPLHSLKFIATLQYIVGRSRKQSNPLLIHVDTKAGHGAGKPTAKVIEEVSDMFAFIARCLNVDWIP
In words: Enzymatic inhibition assay, PREP. The assay is classed as biochemical. Particulars: for IC50: recombinant PREP, n = 3, picture: nM ± 95% CI; for SI PREP/huFAP: selectivity index, IC50 PREP / IC50 huFAP. On the procedure:
as §1, §2

Assay [3] has as its target T3, dipeptidyl peptidase IV (DPP4) (Homo sapiens, UniProt P27487).
T3 construct: purchased Abcam
Kind of assay: Enzymatic inhibition assay, DPP4. The assay is classed as biochemical. The conditions noted are these: recombinant DPP4, n = 3; picture: nM ± 95% CI. The protocol: All experiments were performed in triplicate and repeated at least three times.

This is an account of results in article PMC11286609, “In vitro and in vivo analyses of eFAP: a novel FAP-targeting small molecule for radionuclide theranostics and other oncological interventions” (EJNMMI Radiopharmacy and Chemistry, 2024).

T3 sequence (P27487 whole entry, species assumed): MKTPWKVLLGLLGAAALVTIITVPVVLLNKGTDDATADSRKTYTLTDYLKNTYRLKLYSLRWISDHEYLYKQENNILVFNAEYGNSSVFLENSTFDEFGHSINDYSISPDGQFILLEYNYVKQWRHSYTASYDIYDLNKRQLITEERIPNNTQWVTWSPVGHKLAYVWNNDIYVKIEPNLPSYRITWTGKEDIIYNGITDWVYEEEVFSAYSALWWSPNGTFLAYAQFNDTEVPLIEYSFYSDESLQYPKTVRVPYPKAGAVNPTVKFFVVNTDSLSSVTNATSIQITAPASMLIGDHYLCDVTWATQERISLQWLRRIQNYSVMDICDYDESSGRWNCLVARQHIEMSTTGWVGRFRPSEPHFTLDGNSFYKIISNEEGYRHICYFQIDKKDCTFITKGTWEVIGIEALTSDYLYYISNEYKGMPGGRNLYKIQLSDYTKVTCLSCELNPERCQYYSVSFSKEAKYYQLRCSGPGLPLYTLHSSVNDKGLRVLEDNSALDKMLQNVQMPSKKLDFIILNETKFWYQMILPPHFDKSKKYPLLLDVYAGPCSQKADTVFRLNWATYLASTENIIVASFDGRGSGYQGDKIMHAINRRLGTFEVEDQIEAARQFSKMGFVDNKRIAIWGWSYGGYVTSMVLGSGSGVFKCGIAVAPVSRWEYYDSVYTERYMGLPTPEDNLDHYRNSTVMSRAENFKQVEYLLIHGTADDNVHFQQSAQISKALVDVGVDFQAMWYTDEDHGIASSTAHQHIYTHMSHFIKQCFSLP

As to `CN(CCCN1CCN(C(=O)CN2CCN(CC(=O)O)CCN(CC(=O)O)CCN(CC(=O)O)CC2)CC1)c1ccc2nccc(C(=O)NCC(=O)N3CC(F)(F)C[C@H]3C#N)c2c1` [FAPI-46, reference compound], the IC50 worked out at 1.55 ± 1.2 nM in assay [1] and 3480 ± 172 nM in assay [2].

Regarding `N#C[C@@H]1CC(F)(F)CN1C(=O)CNC(=O)c1ccnc2c(OCCCNC(=O)CN3CCN(CC(=O)O)CCN(CC(=O)O)CCN(CC(=O)O)CC3)cccc12` [eFAP-6, (S)-2,2',2''-(10-(2-((3-((4-((2-(2-cyano-4,4-difluoropyrrolidin-1-yl)-2-oxoethyl)carbamoyl)quinolin-8-yl)oxy)propyl)amino)-2-oxoethyl)-1,4,7,10-tetraazacyclododecane-1,4,7-triyl)triacetic acid], the IC50 in assay [1] was 0.58 ± 0.02 nM; in assay [2] it was 161 ± 53.6 nM; in assay [3], 58600 ± 11400 nM. For the same molecule, the “SI PREP/huFAP” value in assay [2] came to 138.6.

Take `CN1/C(=C/C=C/C=C/C2=[N+](CCCCCC(=O)NCCCOc3cccc4c(C(=O)NCC(=O)N5CC(F)(F)C[C@H]5C#N)ccnc34)c3ccc(S(=O)(=O)[O-])cc3C2(C)C)C(C)(C)c2cc(S(=O)(=O)O)ccc21` [eFAP-7, 1-(6-((3-((4-((2-((S)-2-cyano-4,4-difluoropyrrolidin-1-yl)-2-oxoethyl)carbamoyl)quinolin-8-yl)oxy)propyl)amino)-6-oxohexyl)-3,3-dimethyl-5-sulfo-2-((1E,3E)-5-((E)-1,3,3-trimethyl-5-sulfoindolin-2-ylidene)penta-1,3-dien-1-yl)-3H-indol-1-ium]: the figures for the half-inhibitory concentration (IC50) in assay [1], in assay [2] and in assay [3] were 4.56 ± 0.2 nM, 475 ± 104 nM and 612000 ± 42700 nM, respectively. Besides, the “SI PREP/huFAP” value in assay [2] was determined as 112.3.
